According to article PMC7564282, “Juniperonic Acid Biosynthesis is Essential in Caenorhabditis elegans Lacking Δ6 Desaturase (fat-3) and Generates New ω-3 Endocannabinoids” (Cells, 2020):
Like-named read-outs stand apart in the source and are kept apart here.

Tests used:
NPR-32 = target: T1, NPR-32 (Caenorhabditis elegans, UniProt O62403); assay: NPR-32 competitive binding assay with [3H]CP55,940 on N2 (WT) membrane preparations; set-up: species or system C. elegans
T1 sequence (O62403 1-440): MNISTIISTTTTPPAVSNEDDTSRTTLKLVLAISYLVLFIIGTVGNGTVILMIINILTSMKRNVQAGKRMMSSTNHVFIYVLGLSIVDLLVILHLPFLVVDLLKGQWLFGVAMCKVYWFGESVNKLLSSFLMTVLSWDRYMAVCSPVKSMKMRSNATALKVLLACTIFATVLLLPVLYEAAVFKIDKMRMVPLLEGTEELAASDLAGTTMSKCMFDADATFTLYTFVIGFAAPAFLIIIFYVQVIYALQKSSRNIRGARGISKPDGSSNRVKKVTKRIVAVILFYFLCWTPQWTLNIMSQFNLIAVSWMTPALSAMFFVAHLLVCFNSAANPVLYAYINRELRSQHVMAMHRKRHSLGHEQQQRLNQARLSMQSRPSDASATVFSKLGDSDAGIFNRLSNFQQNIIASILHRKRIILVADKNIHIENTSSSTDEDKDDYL
Protocol: (§1) Worm homogenization and membrane preparation: the animals were collected from NGM plates as described before. The animals were freshly broken/homogenized by tip sonication before the beginning of every assays in S-basal and then a protein estimation was carried out for these samples, by a standard BCA kit (Sigma-Aldrich, St. Louis, MO, USA). For membrane preparations the worm pellet was resuspended in homogenization buffer (50 mM Tris HCl pH = 7.4, 3 mM MgCl2, 1 mM EGTA). Next, the homogenate was transferred to an ultracentrifuge tube and spun at 100,000× g for 60 min at 4 °C. The supernatant was carefully removed and the pellet was gently washed. Then, the pellet was resuspended with the help of a polytron in 50 mM Tris HCl pH = 7.4 and passed through a clean syringe. Finally, the sample was sonicated in a water bath for 5 min. A protein estimation for the membranes was carried out and the aliquots were frozen and stored at −80 °C.
CP55,940 for 75 min at 30 °C. After the incubation time, membrane suspensions were rapidly filtered through a 0.1% polyethyleneimine presoaked 96-well microplate bonded with GF/B glass fiber filters (UniFilter-96 GF/B, PerkinElmer Life Sciences) under vacuum and washed 12 times with 120 µL of washing buffer (50 mM Tris-HCl, 2.5 mM EDTA, 5 mM MgCl2, 0.5% BSA, pH 7.5). […] The results were analyzed with GraphPad Prism 5® and expressed as % of [^3H]CP55,940 binding. IC50 values of each compound were estimated from fitted nonlinear curves and were used to calculate the Ki values by applying the Cheng-Prusoff equation.

MAGL = assay: Competitive [3H]2-OG hydrolysis assay in pig brain homogenate; type: biochemical
[1] = test system: 2-OG hydrolysis in whole worm homogenates; assay: Competitive [3H]2-OG hydrolysis assay in whole worm homogenate; type: biochemical, C. elegans
Protocol: as §1
(§2) AEA and [^3H] 2-OG, respectively. The reaction was performed using worm homogenate (200 or 100 µg per sample) or pig brain homogenate (200 µg per sample) in 194 μL of assay buffer (10 mM Tris-HCl, 1 mM EDTA, 0.1 % BSA, pH 8.0). […] Signal was detected with TRICARB 2100TR scintillation counter and results were analyzed with GraphPad Prism 5® and expressed as [^3H] […]

fat-3(wa22) mutant [2] = assay: Development monitoring after dietary PUFA supplementation; type: in vivo, C. elegans; details: 200 μM in E. coli OP50 diet, 36 h after hatching, 23 °C
Protocol: Ten mM stock solutions of AA, ω-3 AA and JuA were prepared in DMSO and kept at −20 °C. These stocks were diluted in E. coli OP50 to a final concentration of 200 μM, and 100 μL of the volume was seeded onto each plate, with appropriate DMSO controls, allowing drying for 1 h in the dark. The animals that were treated with the PUFAs from hatching were allowed to grow on these plates until they reached L4 larval stage. For monitoring the development N2 (WT) and fat-3(wa22) gravid animals were allowed to lay eggs for 2–3 h. These eggs were transferred onto NGM plates supplemented with PUFAs as described above. Their growth was monitored and then imaged using an AmScope MU1000 camera, USA.

fat-3(wa22) mutant [3] = assay: Brood size assay after dietary PUFA supplementation; type: in vivo, C. elegans; details: for hatching and brood size defects: fat-3(wa22), 200 μM in E. coli OP50 diet, p < 0.0001
Protocol: (§3) Ten mM stock solutions of AA, ω-3 AA and JuA were prepared in DMSO and kept at −20 °C. These stocks were diluted in E. coli OP50 to a final concentration of 200 μM, and 100 μL of the volume was seeded onto each plate, with appropriate DMSO controls, allowing drying for 1 h in the dark. The animals that were treated with the PUFAs from hatching were allowed to grow on these plates until they reached L4 larval stage.
N2 (WT) and fat-3(wa22) were transferred onto NGM plates supplemented with PUFAs as described above. Once they reached L4 larval stage, one worm per plate was transferred to a plate freshly seeded with PUFAs and allowed to grow at 23 °C. These animals were transferred to new plates every 24 h until they ceased to lay eggs. The number of hatched progeny was checked and counts were performed after the population reached L3/L4 stage. This assay was carried out in three independent trials. Results were analyzed with GraphPad Prism 5®, San Diego, CA, USA. The data were pooled and analyzed using Student’s t test. p < 0.05 was accepted as statistically significant.
The RNA interference (RNAi) by feeding assay was performed on NGM agar plates supplemented with additional antibiotics ([…], […]) and 0.8 mM isopropyl-β-D-thiogalactopyranosid (IPTG). The Ahringer RNAi collection was used, E. coli HT115 bacteria containing RNAi vectors expressing double-stranded RNA of the genes fat-4, elo-1, and elo-2 were pre-cultured, induced with IPTG, and used as nematode food as described previously. Assays were carried out on plates seeded with RNAi bacteria induced overnight; the PUFAs were dissolved in sterile distilled water, and then overlaid on the plates just before the assays.

N2 (WT) animals = assay: Lifespan assay, N2 (WT); type: in vivo, C. elegans; details: supplementation, 23 °C, 50 μg/mL FUDR
Protocol: as §3
All lifespan assays were carried out at 23 °C. Synchronized populations were obtained by allowing 10–15 hermaphrodites lay eggs overnight, and the next day the parents were removed. The eggs were allowed to hatch and 30 L4/young adult animals per plate (NGM plate containing 50 μg/mL FUDR to prevent the growth of progeny) were used for each assay. All the assays were carried out at least in triplicates and a minimum of two independent trials were performed for all conditions. The dead animals were counted starting the next day and exploding, protruding, bagging or contaminated animals were censored if applicable. We defined the day when we transferred the L4/young adult animals as day 0 of adult age. All statistical analyses were carried out using results that were analyzed with GraphPad Prism 5®. Kaplan–Meier lifespan analysis was carried out, and p values were calculated using the log-rank test. p < 0.05 was accepted as statistically significant.

FAAH = target: T2, FAAH (Sus scrofa, UniProt Q9TUI8); assay: Competitive [3H]AEA hydrolysis assay in pig brain homogenate; type: biochemical
T2 construct: or pig brain homogenate (200 µg per sample); from tissue; host or cells: pig brain homogenate
T2 sequence (Q9TUI8 1-579): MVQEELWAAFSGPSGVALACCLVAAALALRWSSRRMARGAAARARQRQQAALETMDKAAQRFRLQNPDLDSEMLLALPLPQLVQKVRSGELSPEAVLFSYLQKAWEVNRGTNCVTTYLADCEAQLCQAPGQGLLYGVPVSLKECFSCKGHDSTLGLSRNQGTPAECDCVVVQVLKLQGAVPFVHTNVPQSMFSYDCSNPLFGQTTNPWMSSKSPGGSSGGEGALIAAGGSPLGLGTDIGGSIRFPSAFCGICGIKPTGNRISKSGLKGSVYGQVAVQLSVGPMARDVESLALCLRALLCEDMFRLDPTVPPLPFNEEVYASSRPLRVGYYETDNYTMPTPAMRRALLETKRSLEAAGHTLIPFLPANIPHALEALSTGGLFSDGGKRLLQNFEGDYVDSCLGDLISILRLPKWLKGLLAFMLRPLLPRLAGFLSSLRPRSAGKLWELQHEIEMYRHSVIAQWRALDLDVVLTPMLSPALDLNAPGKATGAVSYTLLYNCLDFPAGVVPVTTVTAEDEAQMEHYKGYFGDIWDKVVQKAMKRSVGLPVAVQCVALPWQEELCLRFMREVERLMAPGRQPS
Protocol: AEA and [^3H] 2-OG, respectively. The reaction was performed using worm homogenate (200 or 100 µg per sample) or pig brain homogenate (200 µg per sample) in 194 μL of assay buffer (10 mM Tris-HCl, 1 mM EDTA, 0.1 % BSA, pH 8.0). […] The reaction was stopped by adding 400 μL of ice-cold mixture CHCl3-CH3OH (1:1 v/v), and, subsequently, tubes were vortexed and centrifuged for 10 min at 4 °C and 10,000 rpm. Finally, the upper aqueous phase was transferred to scintillation vials and mixed with 3 mL of Ultima Gold scintillation liquid. Signal was detected with TRICARB 2100TR scintillation counter and results were analyzed with GraphPad Prism 5® and expressed as [^3H] AEA or [^3H] 2-OG hydrolysis (% of vehicle).

FAAH-1 = target: T3, FAAH-1 (Caenorhabditis elegans, UniProt Q17449); assay: Competitive [3H]AEA hydrolysis assay in whole worm homogenate; type: biochemical, C. elegans
T3 construct: from tissue; host or cells: whole C. elegans worm homogenate
T3 sequence (Q17449 15-572): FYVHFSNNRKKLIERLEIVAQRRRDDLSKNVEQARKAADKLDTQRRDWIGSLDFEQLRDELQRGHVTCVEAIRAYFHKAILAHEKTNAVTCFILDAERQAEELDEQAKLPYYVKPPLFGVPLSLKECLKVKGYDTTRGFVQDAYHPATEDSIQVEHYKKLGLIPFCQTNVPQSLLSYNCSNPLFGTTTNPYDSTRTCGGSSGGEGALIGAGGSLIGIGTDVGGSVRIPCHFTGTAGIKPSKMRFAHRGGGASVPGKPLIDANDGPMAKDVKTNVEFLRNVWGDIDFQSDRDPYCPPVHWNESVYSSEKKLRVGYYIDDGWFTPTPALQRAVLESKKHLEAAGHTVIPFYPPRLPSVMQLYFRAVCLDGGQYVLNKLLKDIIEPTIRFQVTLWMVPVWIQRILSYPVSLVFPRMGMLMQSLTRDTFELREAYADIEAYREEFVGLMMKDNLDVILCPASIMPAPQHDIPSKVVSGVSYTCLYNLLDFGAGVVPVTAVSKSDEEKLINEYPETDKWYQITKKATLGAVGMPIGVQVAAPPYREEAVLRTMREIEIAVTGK
Protocol: as §1, §2

[4] = displacement of 3 nM [3H]CP55,940, N2 (WT) membranes, 5 µM JZL-195 preincubation; apparent Ki by Cheng-Prusoff; 95% CI; read-out: Ki, NPR-32 binding
[5] = read-out: Ki, NPR-32 binding; displacement of 3 nM [3H]CP55,940, N2 (WT) membranes, 5 µM JZL-195 preincubation; apparent Ki by Cheng-Prusoff; 95% CI

## 1/2-juniperoylglycerol [1/2-JG]
NPR-32; [4]
  Ki: 1.1 µM
MAGL
  hydrolysis by MAGL (competition with tritiated 2-OG): readily hydrolyzed
[1]
  competition with 2-OG hydrolysis: competed

## CCCCC/C=C\C/C=C\C/C=C\C/C=C\CCCC(=O)O [AA, Arachidonic acid]
fat-3(wa22) mutant [2]
  recovery of growth and development defects: significant recovery of growth and development defects
fat-3(wa22) mutant [3]
  hatching and brood size defects: recovered
N2 (WT) animals
  effect on lifespan: did not affect the lifespan

## CCCCC/C=C\C/C=C\C/C=C\C/C=C\CCCC(=O)NCCO [AEA, N-arachidonoyl ethanolamine]
NPR-32; [5]
  Ki: 1.9 µM

## CC/C=C\C/C=C\C/C=C\CCCC/C=C\CCCC(=O)NCCO [JEA, N-juniperoyl ethanolamine]
NPR-32; [4]
  Ki: 0.74 µM
FAAH
  hydrolysis by FAAH (competition with tritiated AEA): readily hydrolyzed
FAAH-1; whole worm homogenates
  competition with AEA hydrolysis: competed

## CC/C=C\C/C=C\C/C=C\CCCC/C=C\CCCC(=O)O [JuA, Juniperonic acid]
fat-3(wa22) mutant [2]
  recovery of growth and development defects: significant recovery of growth and development defects
fat-3(wa22) mutant [3]; fat-3(wa22) with fat-4 and elo-2 RNAi knockdown, JuA supplementation
  reversal of growth delay and brood size reduction in RNAi knockdowns: could reverse the additional detrimental effects
fat-3(wa22) mutant [3]
  hatching and brood size defects: recovered
N2 (WT) animals
  effect on lifespan: did not affect the lifespan

## CC/C=C\C/C=C\C/C=C\C/C=C\CCCCCCC(=O)O [ω-3 AA, Omega-3 arachidonic acid]
fat-3(wa22) mutant [2]
  recovery of growth and development defects: significant recovery of growth and development defects
fat-3(wa22) mutant [3]
  hatching and brood size defects: recovered
N2 (WT) animals
  effect on lifespan: did not affect the lifespan

## CC/C=C\C/C=C\C/C=C\C/C=C\CCCCCCC(=O)NCCO [ω-3 AEA, Omega-3 N-arachidonoyl ethanolamine]
NPR-32; [5]
  Ki: 1 µM
FAAH; 20 min 37 °C, AEA final 2 µM, read-out: IC50, competition with [3H]-AEA hydrolysis
  IC50: > 100 µM
FAAH-1; whole worm homogenate, 20 min 37 °C, AEA final 2 µM, read-out: IC50, competition with [3H] AEA hydrolysis
  IC50: 36 µM

## Omega-3 1/2-arachidonoyl glycerol [ω-3 1/2-AG]
[1]
  competition with 2-OG hydrolysis: competed
